Results published in patent US20200055844A1, “4-SULFONYLAMINOCARBONYLQUINOLINE DERIVATIVES FOR INCREASING CFTR ACTIVITY” (Proteostasis Therapeutics, Inc., priority 2017, published 2020).

molecular target: T1, ΔF508-CFTR (Homo sapiens, UniProt P13569, DEL508-508); assay: hBE equivalent current (Ieq) assay; format: cell-based; conditions: AUC of equivalent chloride current, % of CFTR amplifier (Compound A)+VX-809 (3 uM); compound at 10 uM and Compound A at 3 uM; primary lung epithelial cells homozygous ΔF508, 24 hours treatment
T1 construct: Primary lung epithelial cells homozygous for the Cystic Fibrosis-causing ΔF508 mutation were differentiated; endogenous in cells; host or cells: primary lung (bronchial) epithelial cells (hBE) homozygous for ΔF508, differentiated at an air-liquid interface
T1 sequence (P13569 with tags, fused parts or gaps DEL508-508): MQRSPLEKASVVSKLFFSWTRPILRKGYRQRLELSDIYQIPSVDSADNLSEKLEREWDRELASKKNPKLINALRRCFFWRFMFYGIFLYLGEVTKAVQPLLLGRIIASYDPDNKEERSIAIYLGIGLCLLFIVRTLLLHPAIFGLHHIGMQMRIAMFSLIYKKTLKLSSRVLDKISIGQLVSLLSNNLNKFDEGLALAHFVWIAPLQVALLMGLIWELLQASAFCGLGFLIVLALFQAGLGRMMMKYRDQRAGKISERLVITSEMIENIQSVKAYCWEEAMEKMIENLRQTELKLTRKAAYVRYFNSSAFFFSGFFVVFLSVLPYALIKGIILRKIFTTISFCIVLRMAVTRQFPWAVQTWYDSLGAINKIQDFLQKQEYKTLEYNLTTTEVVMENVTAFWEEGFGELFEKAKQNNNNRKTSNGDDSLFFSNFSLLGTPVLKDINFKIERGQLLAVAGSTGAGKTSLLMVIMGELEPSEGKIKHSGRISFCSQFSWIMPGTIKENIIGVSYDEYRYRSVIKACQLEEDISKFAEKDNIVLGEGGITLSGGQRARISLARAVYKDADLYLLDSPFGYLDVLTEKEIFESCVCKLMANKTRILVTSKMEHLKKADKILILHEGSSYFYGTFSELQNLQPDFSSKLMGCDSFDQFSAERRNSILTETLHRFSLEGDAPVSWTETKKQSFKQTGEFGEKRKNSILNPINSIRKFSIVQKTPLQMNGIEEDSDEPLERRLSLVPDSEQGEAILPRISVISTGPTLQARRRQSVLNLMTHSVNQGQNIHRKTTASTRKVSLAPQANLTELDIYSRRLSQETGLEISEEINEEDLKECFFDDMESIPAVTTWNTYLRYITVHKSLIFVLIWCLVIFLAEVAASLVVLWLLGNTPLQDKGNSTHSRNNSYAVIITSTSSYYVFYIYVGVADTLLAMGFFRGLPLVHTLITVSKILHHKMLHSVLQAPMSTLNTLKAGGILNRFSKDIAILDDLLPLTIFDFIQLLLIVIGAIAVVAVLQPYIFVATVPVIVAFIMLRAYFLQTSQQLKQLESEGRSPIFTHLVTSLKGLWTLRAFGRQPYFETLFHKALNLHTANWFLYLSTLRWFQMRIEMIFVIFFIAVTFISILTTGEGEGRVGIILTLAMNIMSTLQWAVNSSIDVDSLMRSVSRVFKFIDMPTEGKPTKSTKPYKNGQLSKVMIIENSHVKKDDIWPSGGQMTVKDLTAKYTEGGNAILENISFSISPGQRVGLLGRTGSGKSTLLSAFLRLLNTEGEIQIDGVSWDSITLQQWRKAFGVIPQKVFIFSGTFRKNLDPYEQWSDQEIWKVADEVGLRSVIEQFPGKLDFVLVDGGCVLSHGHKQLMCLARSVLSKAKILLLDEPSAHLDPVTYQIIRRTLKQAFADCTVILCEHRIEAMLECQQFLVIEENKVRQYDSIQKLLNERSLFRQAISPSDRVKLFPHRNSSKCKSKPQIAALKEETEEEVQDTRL
Protocol: ii. hBE Equivalent Current (Ieq) Assay
Primary lung epithelial cells homozygous for the Cystic Fibrosis-causing ΔF508 mutation were differentiated for a minimum of 4 weeks in an air-liquid interface on Costar 24 well HTS filter plates prior to the equivalent current (Ieq) measurements. Cells were apically mucus-washed for 30 minutes 24 h prior to treatment with compounds. The basolateral media was removed and replaced with media containing the compound of interest diluted to its final concentration from DMSO stocks. Treated cells were incubated at 37° C. and 5% CO2 for 24 hours. At the end of the treatment period, the media was changed to the Ieq experimental solution for 2 hours before the experiment and plates are maintained in a CO2-free incubator during this period. The plates containing the cells were then placed in pre-warmed heating blocks at 36° C.±0.5 for 15 minutes before measurements are taken. The transepithelial voltage (VT) and conductance (Gr) were measured using a custom 24 channel current clamp (TECC-24) with 24 well electrode manifold. The Ieq assay measurements were made following additions with standardized time periods: • 1. The baseline VT and Gr values were measured for approximately 20 minutes. • 2. Benzamil was added to block ENaC for 15 minutes. • 3. Forskolin plus VX-770 were added to maximally activate ΔF508-CFTR for 27 minutes. • 4. Bumetanide was added to inhibit the NaK2Cl cotransporter and shut-off secretion of chloride.
The activity data captured was the area under the curve (AUC) for the traces of the equivalent chloride current. The AUC was collected from the time of the forskolin/VX-770 addition until the inhibition by bumetanide addition. Correction in response to compound treatment was scored as the increase in the AUC for compound-treated samples over that of vehicle-treated samples.
(+ indicates activity <100% of a CFTR amplifier (Compound A)+VX-809 (3 uM) with compound at 10 uM and Compound A at 3 uM; ++ indicates activity ≥100% and <200% of CFTR amplifier+VX-809 (3 uM) with compound at 10 uM and Compound A at 3 uM; +++ indicates activity >200% of CFTR amplifier+VX-809 (3 uM) with compound at 10 uM and Compound A at 3 uM.

| SMILES | Activity |
| --- | --- |
| Cc1c(-c2cc(C(=O)NS(=O)(=O)c3cccc(N)c3)c3c(O[C@H](C)c4ccccc4)ccc(C)c3n2)oc2ccccc12 [Compound 14] | +++ (activity >200% of CFTR amplifier+VX-809 (3 uM) with compound at 10 uM and Compound A at 3 uM) |
| Cc1c(-c2cc(C(=O)NS(=O)(=O)C3CC3)c3c(O[C@H](C)c4ccccc4)ccc(C)c3n2)sc2ccccc12 [Compound 3] | ++ (activity ≥100% and <200% of CFTR amplifier+VX-809 (3 uM) with compound at 10 uM and Compound A at 3 uM) |
| Cc1c(-c2cc(C(=O)NS(=O)(=O)c3ccccc3)c3c(O[C@H](C)c4ccccc4)ccc(C)c3n2)sc2ccccc12 [Compound 9] | ++ (activity ≥100% and <200% of CFTR amplifier+VX-809 (3 uM) with compound at 10 uM and Compound A at 3 uM) |
| Cc1c(-c2cc(C(=O)NS(=O)(=O)c3cnc(N)s3)c3c(O[C@H](C)c4ccccc4)ccc(C)c3n2)oc2ccccc12 [Compound 18] | + (activity <100% of a CFTR amplifier (Compound A)+VX-809 (3 uM) with compound at 10 uM and Compound A at 3 uM) |
| Cc1c(-c2cc(C(=O)NS(=O)(=O)c3cnc(N)s3)c3c(O[C@H](C)c4ccccc4)ccc(C)c3n2)sc2ccccc12 [Compound 17] | +++ (activity >200% of CFTR amplifier+VX-809 (3 uM) with compound at 10 uM and Compound A at 3 uM) |
| Cc1c(-c2cc(C(=O)NS(=O)(=O)c3cccc(N)n3)c3c(O[C@H](C)c4ccccc4)ccc(C)c3n2)sc2ccccc12 [Compound 11] | ++ (activity ≥100% and <200% of CFTR amplifier+VX-809 (3 uM) with compound at 10 uM and Compound A at 3 uM) |
| Cc1c(-c2cc(C(=O)NS(=O)(=O)C3CC3)c3c(O[C@H](C)c4ccccc4)ccc(C)c3n2)oc2ccccc12 [Compound 4] | ++ (activity ≥100% and <200% of CFTR amplifier+VX-809 (3 uM) with compound at 10 uM and Compound A at 3 uM) |
| Cc1c(-c2cc(C(=O)NS(=O)(=O)c3cccc(N)n3)c3c(O[C@H](C)c4ccccc4)ccc(C)c3n2)oc2ccccc12 [Compound 12] | ++ (activity ≥100% and <200% of CFTR amplifier+VX-809 (3 uM) with compound at 10 uM and Compound A at 3 uM) |
| Cc1c(-c2cc(C(=O)NS(=O)(=O)c3cccc(N)c3)c3c(O[C@H](C)c4ccccc4)ccc(C)c3n2)sc2ccccc12 [Compound 13] | +++ (activity >200% of CFTR amplifier+VX-809 (3 uM) with compound at 10 uM and Compound A at 3 uM) |
| Cc1c(-c2cc(C(=O)NS(=O)(=O)N3CCOCC3)c3c(O[C@H](C)c4ccccc4)ccc(C)c3n2)sc2ccccc12 [Compound 7] | +++ (activity >200% of CFTR amplifier+VX-809 (3 uM) with compound at 10 uM and Compound A at 3 uM) |
| Cc1c(-c2cc(C(=O)NS(C)(=O)=O)c3c(O[C@H](C)c4ccccc4)ccc(C)c3n2)sc2ccccc12 [Compound 1] | +++ (activity >200% of CFTR amplifier+VX-809 (3 uM) with compound at 10 uM and Compound A at 3 uM) |
| Cc1c(-c2cc(C(=O)NS(C)(=O)=O)c3c(O[C@H](C)c4ccccc4)ccc(C)c3n2)oc2ccccc12 [Compound 2] | +++ (activity >200% of CFTR amplifier+VX-809 (3 uM) with compound at 10 uM and Compound A at 3 uM) |
| Cc1c(-c2cc(C(=O)NS(=O)(=O)N3CC[C@H](N)C3)c3c(O[C@H](C)c4ccccc4)ccc(C)c3n2)oc2ccccc12 [Compound 16] | +++ (activity >200% of CFTR amplifier+VX-809 (3 uM) with compound at 10 uM and Compound A at 3 uM) |
| Cc1c(-c2cc(C(=O)NS(=O)(=O)c3ccccc3)c3c(O[C@H](C)c4ccccc4)ccc(C)c3n2)oc2ccccc12 [Compound 10] | ++ (activity ≥100% and <200% of CFTR amplifier+VX-809 (3 uM) with compound at 10 uM and Compound A at 3 uM) |
| Cc1c(-c2cc(C(=O)NS(=O)(=O)N3CC[C@H](N)C3)c3c(O[C@H](C)c4ccccc4)ccc(C)c3n2)sc2ccccc12 [Compound 15] | ++ (activity ≥100% and <200% of CFTR amplifier+VX-809 (3 uM) with compound at 10 uM and Compound A at 3 uM) |
| Cc1c(-c2cc(C(=O)NS(=O)(=O)N3CCOCC3)c3c(O[C@H](C)c4ccccc4)ccc(C)c3n2)oc2ccccc12 [Compound 8] | + (activity <100% of a CFTR amplifier (Compound A)+VX-809 (3 uM) with compound at 10 uM and Compound A at 3 uM) |
